These results are taken from patent US9593105B2, “Cyclic amines” (H. Lundbeck A/S, priority 2012, dated 2017).

For the experiment, the target named is P2X7 receptor (Homo sapiens (Human), UniProt Q99572). As to the kind of experiment: P2X7 FLIPR assay (BzATP-stimulated, Fluo-4 fluorescence) in stably transfected 293 HEK cells. The experiment is classed as cell-based. How it is done:
This example illustrates representative assays for use in evaluating the test compounds for antagonist activity. Compounds of the present invention were tested in vitro for their ability to act as antagonists to the P2X7 receptor.
Cells were plated to cell density of approximately 15,000 cells/well in 384-well assay plates (50 μl/well) with 1.5% low serum media (DMEM, 1.5% BCS, 1% L-glut (2 mM), 1% P/S).
Cells were plated to cell density of approximately 15,000 cells/well in 384-well assay plates (50 μl/well) with 1.5% low serum media (DMEM, 1.5% FBS, 1% L-glut (2 mM), 10 mM HEPES, 1% P/S). Cells were plated 24 hours prior to assay. Cells expressing human, rat or mouse P2X7 receptor were assayed in the following manner.
Fluo-4 NW dye mix (Molecular Probes, Inc., Eugene, Oreg., USA) was prepared in buffer (see manufacturer's instructions). Cell plates were removed from the 37° C. incubator, the media discarded and then 30 μL of dye was added to each well. Plates were placed in the 37° C., non-CO2 incubator for 30 minutes and then room temperature for 30 minutes.
Compound mixtures (A) were added to assay plates containing cells and placed at room temperature for 30 minutes, then BzATP (B) was added. Fluorescence was read using the Tetra FLIPR® (Molecular Devices, Inc., Sunnyvale, Calif., USA) and IC50 values were calculated by standard methods to determine antagonist activity.

Sequence of P2X7 receptor (Q99572 whole entry): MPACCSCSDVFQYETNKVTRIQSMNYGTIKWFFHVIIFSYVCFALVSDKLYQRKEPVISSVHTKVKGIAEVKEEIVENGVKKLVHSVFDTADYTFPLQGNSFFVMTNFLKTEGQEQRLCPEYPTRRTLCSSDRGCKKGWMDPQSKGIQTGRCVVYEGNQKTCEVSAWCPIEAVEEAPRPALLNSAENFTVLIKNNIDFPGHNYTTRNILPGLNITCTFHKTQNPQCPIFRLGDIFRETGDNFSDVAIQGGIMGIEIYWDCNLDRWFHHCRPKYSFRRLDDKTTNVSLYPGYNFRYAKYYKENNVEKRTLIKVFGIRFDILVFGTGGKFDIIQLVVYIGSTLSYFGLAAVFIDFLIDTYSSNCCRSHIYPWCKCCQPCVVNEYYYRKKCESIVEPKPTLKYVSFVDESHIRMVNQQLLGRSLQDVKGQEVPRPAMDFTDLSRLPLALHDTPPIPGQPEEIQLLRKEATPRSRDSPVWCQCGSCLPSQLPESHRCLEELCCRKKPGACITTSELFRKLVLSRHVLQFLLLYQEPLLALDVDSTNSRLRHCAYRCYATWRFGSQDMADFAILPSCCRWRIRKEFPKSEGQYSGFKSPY

What is called IC50 is the concentration that gives 50% inhibition. As to `COc1ccc(C(=O)NCC(c2cnc(C(F)(F)F)nc2)N2CCC(F)(F)CC2)c(Cl)c1` (single isomer, unassigned; (+)) [(+)2-chloro-N-[2-(4,4-difluoro-1-piperidyl)-2-[2-(trifluorom] [(+)2-chloro-4-methoxy-N-(2-(4,4-difluoropiperidin-1-yl)-2-(2-(trifluoromethyl)pyrimidin-5-yl)ethyl)benzamide], the IC50 was found to be 4.3 nM.

`O=C(NCC(c1cnc(C2CC2)nc1)N1CCC(F)(F)CC1)c1c(Cl)cccc1Cl` (single isomer, unassigned; (-)) [(−)2,6-dichloro-N-[2-(2-cyclopropylpyrimidin-5-yl)-2-(4,4-di] [(−)2,6-dichloro-N-(2-(2-cyclopropylpyrimidin-5-yl)-2-(4,4-difluoropiperidin-1-yl)ethyl)benzamide] showed an IC50 of 5.8 nM.
